Measurements taken from PMC10682951, “Structure-function and rational design of a spider toxin Ssp1a at human voltage-gated sodium channel subtypes” (Frontiers in Pharmacology, 2023).
Bridge positions count the residues as written; N and C are the ends. Peptide text beside a SMILES is read from it.

How the values were obtained:
Type in all cases: cell-based
hNaV1.2 = target: T1, hNaV1.2 (Homo sapiens, UniProt Q99250); experiment: Automated whole-cell patch-clamp (QPatch 16X), hNaV1.2; settings: for IC50: HEK293 cells expressing hNaV1.2 + β1 subunit, QPatch 16X, holding −80 mV, step to 0 mV, peptide incubated 2 min, 0.1% BSA, mean, SEM and n (2-7)
T1 construct: host or cells: HEK293
How it was run: (§1)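 HEK293 cells stably expressing the channel (human subtypes with β1 subunit), held at −80 mV; 2 min peptide pre-incubation, then 20 ms steps to 0 mV after a 200 ms −120 mV conditioning pulse. Extracellular pH 7.3 with 20 mM TEA-Cl, CsF-based pipette solution, 0.1% BSA; IC50 from four-parameter Hill fit.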

hNaV1.3 = target: T2, hNaV1.3 (Homo sapiens, UniProt Q9NY46); experiment: Automated whole-cell patch-clamp (QPatch 16X), hNaV1.3; settings: for IC50: HEK293 cells expressing hNaV1.3 + β1 subunit, QPatch 16X, holding −80 mV, step to 0 mV, peptide incubated 2 min, 0.1% BSA, mean, SEM and n (3-12)
T2 construct: host or cells: HEK293
T2 sequence (Q9NY46 whole entry): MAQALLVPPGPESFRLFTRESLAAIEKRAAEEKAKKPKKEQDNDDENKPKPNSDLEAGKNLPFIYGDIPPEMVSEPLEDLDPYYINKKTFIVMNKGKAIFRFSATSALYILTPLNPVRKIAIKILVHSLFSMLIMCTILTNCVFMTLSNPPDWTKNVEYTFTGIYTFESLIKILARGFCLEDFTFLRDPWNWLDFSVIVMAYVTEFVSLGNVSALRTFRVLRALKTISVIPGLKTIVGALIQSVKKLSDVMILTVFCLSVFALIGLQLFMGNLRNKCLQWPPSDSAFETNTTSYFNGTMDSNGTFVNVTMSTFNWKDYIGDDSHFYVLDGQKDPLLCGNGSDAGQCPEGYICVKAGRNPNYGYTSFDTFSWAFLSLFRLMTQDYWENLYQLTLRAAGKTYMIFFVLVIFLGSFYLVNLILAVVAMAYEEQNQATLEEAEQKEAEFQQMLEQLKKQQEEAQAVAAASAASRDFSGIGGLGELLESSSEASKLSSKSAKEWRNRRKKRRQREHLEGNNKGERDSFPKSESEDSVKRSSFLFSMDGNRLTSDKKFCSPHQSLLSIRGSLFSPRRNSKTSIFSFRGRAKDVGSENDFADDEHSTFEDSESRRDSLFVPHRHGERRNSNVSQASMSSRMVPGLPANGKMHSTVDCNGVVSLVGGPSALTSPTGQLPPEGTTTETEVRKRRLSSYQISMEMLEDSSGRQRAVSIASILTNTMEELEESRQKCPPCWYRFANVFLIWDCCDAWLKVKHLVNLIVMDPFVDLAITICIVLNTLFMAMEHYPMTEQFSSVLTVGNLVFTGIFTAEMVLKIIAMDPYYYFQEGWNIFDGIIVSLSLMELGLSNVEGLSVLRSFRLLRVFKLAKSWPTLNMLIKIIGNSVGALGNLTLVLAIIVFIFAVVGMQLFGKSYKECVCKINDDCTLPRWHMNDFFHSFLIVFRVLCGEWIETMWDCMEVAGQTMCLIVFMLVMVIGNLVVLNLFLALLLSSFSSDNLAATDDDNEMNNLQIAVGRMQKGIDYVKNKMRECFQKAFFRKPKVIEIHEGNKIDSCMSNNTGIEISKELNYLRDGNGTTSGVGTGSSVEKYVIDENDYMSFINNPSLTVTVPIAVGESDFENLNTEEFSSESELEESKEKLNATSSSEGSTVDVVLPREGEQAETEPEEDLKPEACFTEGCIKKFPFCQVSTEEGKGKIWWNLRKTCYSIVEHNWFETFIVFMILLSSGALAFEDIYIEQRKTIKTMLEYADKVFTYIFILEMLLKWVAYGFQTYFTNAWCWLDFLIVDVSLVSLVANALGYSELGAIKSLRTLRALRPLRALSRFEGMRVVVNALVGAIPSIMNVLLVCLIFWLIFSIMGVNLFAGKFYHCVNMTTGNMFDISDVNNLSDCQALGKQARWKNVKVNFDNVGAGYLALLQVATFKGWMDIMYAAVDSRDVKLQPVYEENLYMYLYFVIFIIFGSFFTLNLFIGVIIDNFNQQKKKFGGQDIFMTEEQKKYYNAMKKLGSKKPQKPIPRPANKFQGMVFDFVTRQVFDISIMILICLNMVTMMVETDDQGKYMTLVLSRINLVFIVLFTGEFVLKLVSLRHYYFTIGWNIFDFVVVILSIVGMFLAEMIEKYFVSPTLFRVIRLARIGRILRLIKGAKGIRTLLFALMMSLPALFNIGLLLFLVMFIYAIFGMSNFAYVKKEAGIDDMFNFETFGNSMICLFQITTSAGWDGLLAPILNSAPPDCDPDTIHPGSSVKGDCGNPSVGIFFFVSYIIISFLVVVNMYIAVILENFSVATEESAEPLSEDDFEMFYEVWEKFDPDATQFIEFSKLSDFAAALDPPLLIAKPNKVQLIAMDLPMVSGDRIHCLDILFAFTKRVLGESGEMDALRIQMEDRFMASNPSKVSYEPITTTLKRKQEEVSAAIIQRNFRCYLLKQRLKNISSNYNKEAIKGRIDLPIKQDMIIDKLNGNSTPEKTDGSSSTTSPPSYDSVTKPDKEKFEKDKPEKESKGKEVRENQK
T2 sequence (Q07699 19-218, further chain): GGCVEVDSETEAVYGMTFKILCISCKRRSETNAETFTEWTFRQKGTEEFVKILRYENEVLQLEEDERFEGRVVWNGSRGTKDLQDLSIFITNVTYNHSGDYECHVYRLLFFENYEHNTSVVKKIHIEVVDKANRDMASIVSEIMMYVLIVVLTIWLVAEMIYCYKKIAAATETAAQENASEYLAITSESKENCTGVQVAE
How it was run: as §1

hNaV1.7 = target: T3, hNaV1.7 (Homo sapiens, UniProt Q15858); experiment: Automated whole-cell patch-clamp (QPatch 16X), hNaV1.7; settings: for IC50: HEK293 cells expressing hNaV1.7 + β1 subunit, QPatch 16X, holding −80 mV, step to 0 mV, peptide incubated 2 min, 0.1% BSA, mean, SEM and n (3-9)
T3 construct: host or cells: HEK293
T3 sequence (Q15858 whole entry): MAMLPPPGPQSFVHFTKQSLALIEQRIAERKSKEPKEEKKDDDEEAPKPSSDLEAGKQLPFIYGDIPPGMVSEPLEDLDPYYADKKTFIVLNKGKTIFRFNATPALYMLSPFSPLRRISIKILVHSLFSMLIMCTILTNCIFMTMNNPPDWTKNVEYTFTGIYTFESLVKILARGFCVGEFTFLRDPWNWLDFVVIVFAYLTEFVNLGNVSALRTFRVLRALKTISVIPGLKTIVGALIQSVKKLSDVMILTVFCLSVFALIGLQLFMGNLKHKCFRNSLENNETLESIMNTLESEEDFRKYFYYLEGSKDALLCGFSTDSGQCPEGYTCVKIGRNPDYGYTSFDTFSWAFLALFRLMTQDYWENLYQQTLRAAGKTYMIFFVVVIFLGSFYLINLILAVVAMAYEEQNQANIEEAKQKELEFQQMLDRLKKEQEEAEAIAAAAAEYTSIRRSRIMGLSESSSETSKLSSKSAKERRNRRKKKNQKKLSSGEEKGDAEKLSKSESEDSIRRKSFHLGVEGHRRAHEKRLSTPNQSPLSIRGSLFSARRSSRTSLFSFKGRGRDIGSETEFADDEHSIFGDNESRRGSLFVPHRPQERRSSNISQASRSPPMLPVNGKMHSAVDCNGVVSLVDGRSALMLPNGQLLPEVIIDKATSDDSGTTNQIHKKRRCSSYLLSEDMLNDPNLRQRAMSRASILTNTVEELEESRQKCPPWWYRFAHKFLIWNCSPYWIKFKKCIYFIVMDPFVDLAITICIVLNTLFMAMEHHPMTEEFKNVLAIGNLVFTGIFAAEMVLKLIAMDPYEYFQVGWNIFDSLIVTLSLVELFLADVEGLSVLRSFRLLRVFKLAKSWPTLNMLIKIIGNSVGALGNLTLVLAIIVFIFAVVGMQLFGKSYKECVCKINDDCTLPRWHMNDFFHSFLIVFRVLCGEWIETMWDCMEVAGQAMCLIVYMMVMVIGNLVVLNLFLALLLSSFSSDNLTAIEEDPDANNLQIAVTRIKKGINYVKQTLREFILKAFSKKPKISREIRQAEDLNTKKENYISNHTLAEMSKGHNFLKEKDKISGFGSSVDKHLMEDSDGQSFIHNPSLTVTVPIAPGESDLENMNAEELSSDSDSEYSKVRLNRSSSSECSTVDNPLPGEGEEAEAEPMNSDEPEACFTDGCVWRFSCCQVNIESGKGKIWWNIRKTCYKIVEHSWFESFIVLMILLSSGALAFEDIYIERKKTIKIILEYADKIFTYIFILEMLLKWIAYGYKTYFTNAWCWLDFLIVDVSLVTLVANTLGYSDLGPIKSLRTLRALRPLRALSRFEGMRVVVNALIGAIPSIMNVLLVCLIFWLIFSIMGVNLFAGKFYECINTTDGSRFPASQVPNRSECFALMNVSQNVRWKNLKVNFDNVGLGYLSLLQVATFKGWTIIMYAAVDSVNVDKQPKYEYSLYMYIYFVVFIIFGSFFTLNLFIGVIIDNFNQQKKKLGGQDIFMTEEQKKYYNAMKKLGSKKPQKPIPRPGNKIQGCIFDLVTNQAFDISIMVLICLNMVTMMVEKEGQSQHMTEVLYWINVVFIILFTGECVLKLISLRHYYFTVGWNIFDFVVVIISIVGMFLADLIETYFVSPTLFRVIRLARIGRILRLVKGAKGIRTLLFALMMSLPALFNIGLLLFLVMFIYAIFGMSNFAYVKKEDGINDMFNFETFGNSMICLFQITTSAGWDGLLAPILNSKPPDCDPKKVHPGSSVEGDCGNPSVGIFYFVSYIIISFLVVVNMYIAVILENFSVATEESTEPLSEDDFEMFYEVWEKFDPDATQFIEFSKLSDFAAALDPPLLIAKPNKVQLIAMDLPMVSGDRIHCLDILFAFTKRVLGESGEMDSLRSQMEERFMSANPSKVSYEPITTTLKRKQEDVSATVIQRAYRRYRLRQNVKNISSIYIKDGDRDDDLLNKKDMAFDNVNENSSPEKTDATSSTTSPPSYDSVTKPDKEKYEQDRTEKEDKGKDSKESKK
T3 sequence (Q07699 19-218, further chain): as the sequence (Q07699 19-218, further chain) above
How it was run: as §1

SMILES | IC50 (hNaV1.2) | Loss (reduction) in potency vs rSsp1a at hNaV1.2 (hNaV1.2; relative to wild type rSsp1a) | IC50 (hNaV1.3) | IC50 (hNaV1.7) | Loss (reduction) in potency vs rSsp1a at hNaV1.7 (hNaV1.7; relative to wild type rSsp1a) | hNaV1.2-selectivity against hNaV1.3 (hNaV1.2; ratio of potencies hNaV1.3 / hNaV1.2) | hNaV1.2-selectivity against hNaV1.7 (hNaV1.2; ratio of potencies hNaV1.7 / hNaV1.2) | Activity at hNaV1.3 (in words) (hNaV1.3; alanine mutant vs rSsp1a)
CC(C)C[C@H](NC(=O)[C@H](CC(=O)O)NC(=O)[C@H](Cc1ccc(O)cc1)NC(=O)[C@H](C)NC(=O)[C@@H]1CSSC[C@@H]2NC(=O)[C@H](CCCCN)NC(=O)[C@H](CC(N)=O)NC(=O)[C@H](CC(N)=O)NC(=O)[C@H](CC(N)=O)NC(=O)[C@@H]3CCCN3C(=O)[C@H](CC(=O)O)NC(=O)[C@@H]3CSSC[C@H](NC(=O)[C@H](C(C)C)NC(=O)[C@H](Cc4ccc(O)cc4)NC(=O)CNC(=O)[C@H](CCC(=O)O)NC(=O)[C@H](CSSC[C@H](NC(=O)[C@H](CC(=O)O)NC(=O)CN)C(=O)N[C@@H](CC(C)C)C(=O)NCC(=O)N[C@@H](Cc4c[nH]c5ccccc45)C(=O)N[C@@H](Cc4ccccc4)C(=O)N[C@@H](CO)C(=O)NCC(=O)N3)NC2=O)C(=O)N[C@@H](Cc2c[nH]cn2)C(=O)N[C@@H](Cc2c[nH]c3ccccc23)C(=O)N[C@@H](CCCCN)C(=O)N[C@@H](Cc2ccc(O)cc2)C(=O)N2CCC[C@H]2C(=O)N[C@@H](Cc2c[nH]c3ccccc23)C(=O)N1)C(=O)O [R30A] (H-GDCLGWFSGCDPNNNKCCEGYVCHWKYPWCAYDL-OH; disulfide 3-18, 10-23, 17-30 (inferred); N-terminus and C-terminus assumed) | > 1000 nM | ≥ 10 fold | > 1000 nM | > 1000 nM | ≥ 10 fold |  |  | 
CC(C)C[C@H](NC(=O)[C@H](CC(=O)O)NC(=O)[C@H](Cc1ccc(O)cc1)NC(=O)[C@H](CCCNC(=N)N)NC(=O)[C@@H]1CSSC[C@@H]2NC(=O)[C@H](CCCCN)NC(=O)[C@H](CC(N)=O)NC(=O)[C@H](CC(N)=O)NC(=O)[C@H](CC(N)=O)NC(=O)[C@@H]3CCCN3C(=O)[C@H](CC(=O)O)NC(=O)[C@@H]3CSSC[C@H](NC(=O)[C@H](C(C)C)NC(=O)[C@H](Cc4ccc(O)cc4)NC(=O)CNC(=O)[C@H](CCC(=O)O)NC(=O)[C@H](CSSC[C@H](NC(=O)[C@H](CC(=O)O)NC(=O)CN)C(=O)N[C@@H](CC(C)C)C(=O)N[C@@H](CCC(N)=O)C(=O)N[C@@H](Cc4c[nH]c5ccccc45)C(=O)N[C@@H](Cc4ccccc4)C(=O)N[C@@H](CO)C(=O)NCC(=O)N3)NC2=O)C(=O)N[C@@H](Cc2c[nH]cn2)C(=O)N[C@@H](Cc2c[nH]c3ccccc23)C(=O)N[C@@H](CCCCN)C(=O)N[C@@H](Cc2ccc(O)cc2)C(=O)N2CCC[C@H]2C(=O)N[C@@H](Cc2c[nH]c3ccccc23)C(=O)N1)C(=O)O [G4Q] | 503 nM |  | 999 nM | 606 nM |  |  |  | 
CC(C)C[C@H](NC(=O)[C@H](CC(=O)O)NC(=O)[C@H](Cc1ccc(O)cc1)NC(=O)[C@H](CCCNC(=N)N)NC(=O)[C@@H]1CSSC[C@@H]2NC(=O)[C@H](CCCCN)NC(=O)[C@H](CC(N)=O)NC(=O)[C@H](CC(N)=O)NC(=O)[C@H](CC(N)=O)NC(=O)[C@@H]3CCCN3C(=O)[C@H](CC(=O)O)NC(=O)[C@@H]3CSSC[C@H](NC(=O)[C@H](C(C)C)NC(=O)[C@H](Cc4ccc(O)cc4)NC(=O)CNC(=O)[C@H](CCCCN)NC(=O)[C@H](CSSC[C@H](NC(=O)[C@H](CC(=O)O)NC(=O)CN)C(=O)N[C@@H](CC(C)C)C(=O)NCC(=O)N[C@@H](Cc4c[nH]c5ccccc45)C(=O)N[C@@H](Cc4ccccc4)C(=O)N[C@@H](CO)C(=O)NCC(=O)N3)NC2=O)C(=O)N[C@@H](Cc2c[nH]cn2)C(=O)N[C@@H](Cc2c[nH]c3ccccc23)C(=O)N[C@@H](CCCCN)C(=O)N[C@@H](Cc2ccc(O)cc2)C(=O)N2CCC[C@H]2C(=O)N[C@@H](Cc2c[nH]c3ccccc23)C(=O)N1)C(=O)O [E18K] | 72 nM |  | 313 nM | 107 nM |  |  |  | 
CC(C)C[C@H](NC(=O)[C@H](CC(=O)O)NC(=O)[C@H](Cc1ccc(O)cc1)NC(=O)[C@H](CCCNC(=N)N)NC(=O)[C@@H]1CSSC[C@@H]2NC(=O)[C@H](CCCCN)NC(=O)[C@H](CC(=O)O)NC(=O)[C@H](CC(N)=O)NC(=O)[C@H](CC(N)=O)NC(=O)[C@@H]3CCCN3C(=O)[C@H](CC(=O)O)NC(=O)[C@@H]3CSSC[C@H](NC(=O)[C@H](C(C)C)NC(=O)[C@H](Cc4ccc(O)cc4)NC(=O)CNC(=O)[C@H](CCC(=O)O)NC(=O)[C@H](CSSC[C@H](NC(=O)[C@H](CC(=O)O)NC(=O)CN)C(=O)N[C@@H](CC(C)C)C(=O)NCC(=O)N[C@@H](Cc4c[nH]c5ccccc45)C(=O)N[C@@H](Cc4ccccc4)C(=O)N[C@@H](CO)C(=O)NCC(=O)N3)NC2=O)C(=O)N[C@@H](Cc2c[nH]cn2)C(=O)N[C@@H](Cc2c[nH]c3ccccc23)C(=O)N[C@@H](CCCCN)C(=O)N[C@@H](Cc2ccc(O)cc2)C(=O)N2CCC[C@H]2C(=O)N[C@@H](Cc2c[nH]c3ccccc23)C(=O)N1)C(=O)O [N14D] | 126 nM |  | 900 nM | > 3000 nM |  | 7 fold | > 24 fold | 
CC(C)C[C@H](NC(=O)[C@H](CC(=O)O)NC(=O)[C@H](Cc1ccc(O)cc1)NC(=O)[C@H](CCCNC(=N)N)NC(=O)[C@@H]1CSSC[C@@H]2NC(=O)[C@H](CCCCN)NC(=O)[C@H](CC(N)=O)NC(=O)[C@H](CC(N)=O)NC(=O)[C@H](CC(N)=O)NC(=O)[C@@H]3CCCN3C(=O)[C@H](CC(=O)O)NC(=O)[C@@H]3CSSC[C@H](NC(=O)[C@H](C(C)C)NC(=O)[C@H](C)NC(=O)CNC(=O)[C@H](CCC(=O)O)NC(=O)[C@H](CSSC[C@H](NC(=O)[C@H](CC(=O)O)NC(=O)CN)C(=O)N[C@@H](CC(C)C)C(=O)NCC(=O)N[C@@H](Cc4c[nH]c5ccccc45)C(=O)N[C@@H](Cc4ccccc4)C(=O)N[C@@H](CO)C(=O)NCC(=O)N3)NC2=O)C(=O)N[C@@H](Cc2c[nH]cn2)C(=O)N[C@@H](Cc2c[nH]c3ccccc23)C(=O)N[C@@H](CCCCN)C(=O)N[C@@H](Cc2ccc(O)cc2)C(=O)N2CCC[C@H]2C(=O)N[C@@H](Cc2c[nH]c3ccccc23)C(=O)N1)C(=O)O [Y20A] | 1840 nM |  | > 3000 nM | 1270 nM |  |  |  | inactive
CC(C)C[C@@H]1NC(=O)[C@@H](NC(=O)[C@H](CC(=O)O)NC(=O)CN)CSSC[C@@H]2NC(=O)[C@@H]3CSSC[C@@H](C(=O)N[C@@H](CCCNC(=N)N)C(=O)N[C@@H](Cc4ccc(O)cc4)C(=O)N[C@@H](CC(=O)O)C(=O)N[C@@H](C)C(=O)O)NC(=O)[C@H](Cc4c[nH]c5ccccc45)NC(=O)[C@@H]4CCCN4C(=O)[C@H](Cc4ccc(O)cc4)NC(=O)[C@H](CCCCN)NC(=O)[C@H](Cc4c[nH]c5ccccc45)NC(=O)[C@H](Cc4c[nH]cn4)NC(=O)[C@H](CSSC[C@H](NC(=O)CNC(=O)[C@H](CO)NC(=O)[C@H](Cc4ccccc4)NC(=O)[C@H](Cc4c[nH]c5ccccc45)NC(=O)CNC1=O)C(=O)N[C@@H](CC(=O)O)C(=O)N1CCC[C@H]1C(=O)N[C@@H](CC(N)=O)C(=O)N[C@@H](CC(N)=O)C(=O)N[C@@H](CC(N)=O)C(=O)N[C@@H](CCCCN)C(=O)N3)NC(=O)[C@H](C(C)C)NC(=O)[C@H](Cc1ccc(O)cc1)NC(=O)CNC(=O)[C@H](CCC(=O)O)NC2=O [L33A] | 396 nM |  | > 3000 nM | 448 nM |  |  |  | 
